# In patent US8236820B2, “Anti-inflammatory compounds and uses thereof” (priority 2007, dated 2012):
# pIC50: −log10 of the molar value.
# Experiments:
# MDA-MB231 = assay: Cell viability (MTT) assay, 24-h IC50, MDA-MB231; format: cell-based, human; settings: Homo sapiens, MDA-MB-231, 24 h, read-out: 24-h IC50
# [1] = system: MDA-MB 231 human breast cancer cells; assay: Cell proliferation assay (BrdU incorporation) in MDA-MB231; format: cell-based; settings: MDA-MB231, each compound at its IC50 concentration
# Text: (§1) Cell proliferation assay: To determine cell proliferation, we measured the incorporation of 5-bromo-2′-deoxyuridine (BrdU) into newly synthesized cellular DNA, following the manufacture's instructions (BD Biosciences, San Jose, Calif.).
# As summarized in Table 2 below, in MDA-MB231 cells, all six compounds, each used at its IC50 concentration, a) inhibited cell proliferation between 6% and 50% compared to controls; b) induced both early and late apoptosis, as well as necrosis; and c) inhibited the G1 to S cell cycle phase transition. In this Table, the values for proliferation are the percentage of the corresponding control values. Those for apoptosis and necrosis refer to the percentage of cells in each category with respect to the entire cell population, and are to be compared to the control (vehicle only-treated) cells (uppermost row).
# [2] = system: SW480 and HT-29 human colon cancer cells; assay: Cell kinetics of colon cancer cells treated with phospho-sulindac I; format: cell-based
# Protocol: as §1
# Annexin V and propidium iodide (PI) staining: Cells were seeded at a density of 1×10^5 cells/well and treated for 24 h with various concentrations of each compound or equivalent volumes of DMSO. Briefly, after incubation with the test compounds, cells were trypsinized and stained with Annexin V-FITC (Invitrogen) and PI (0.5 μg/ml). Following incubation at room temperature for 15 min in the dark, annexin V-FITC and PI fluorescence intensities were analyzed by FACScaliber (BD Bioscience). Annexin V (+)/PI (−) cells are in early apoptosis, annexin V (+)/PI (+) cells are in late apoptosis (secondary necrosis), and annexin V (−)/ PI (+) cells are necrotic cells.
# Determination of cell cycle phase distribution (PI incorporation assay): Cells were seeded in culture plates and treated for 24 h with various concentrations of each compound or equivalent volumes of DMSO. After treatment, cells were trypsinized and fixed in 70% ethanol for 1 h on ice, stained with PI (50 μg/ml) and RNase A (4 U/ml) for 30 min and subjected to flow cytometric analysis for the determination of their distribution in the cell cycle phases.
# SW480 = assay: DFMO / phospho-sulindac I synergy, cell growth at 48 h, SW480; format: cell-based, human; settings: SW480, 48 h; DFMO 5 mM, phospho-sulindac I 40 μM
# Protocol: A—Left panel: Cell viability was determined in HT-29 (full bars) and SW-480 (empty bars) cells after 48 h of incubation with 5 mM DFMO, 40 μM phospho-sulindac (P-S) or simultaneous combination of DFMO and P-S. Data are expressed as percentage of control cells (cells incubated only with DMSO). […] Right panel: In this isobologram the additivity line connects the IC50 value of each compound used alone. A and B represent two different dose pairs of each compound (their respective concentrations are shown in parentheses). The location of both A and B below the additivity line signifies synergy. […] DNA content was determined from propidium iodide (PI) fluorescence. C—Apoptosis and necrosis were determined by combined staining with annexin V and PI and determining fluorescence intensity. The percentages of apoptotic cells were determined using the dual staining with annexin V and propidium iodide and are indicated in each quadrant: left bottom quadrant, viable cells (annexin V-negative/PI-negative); right bottom quadrant, early apoptotic cells (annexin V-positive/PI-negative); right upper quadrant, late apoptotic cells (annexin V-positive/PI-positive); left upper quadrant, necrotic cells (annexin V-negative, PI-positive). […]
# [3] = system: spermidine/spermine N^1-acetyltransferase (SSAT); assay: SSAT enzymatic activity in HT-29 cells; format: cell-based, human; settings: HT-29, 24 h; phospho-sulindac I 85 μM; P<0.05 versus control
# Protocol: (§2) SW480 cells were incubated without or with phospho-sulindac I (P-S) for up to 24 h and SSAT activity was determined at each time point by determining the amount of labelled N1-acetylspermidine synthesized from [^14C]acetyl-CoA and unlabeled spermidine.
# (§3) The effect of phospho-sulindac I on polyamines is mediated, at least in part, by activation of SSAT by phospho-sulindac I. It is known that conventional sulindac induces SSAT activity (Babbar et al., Cyclooxygenase-independent induction of apoptosis by sulindac sulfone is mediated by polyamines in colon cancer. J Biol Chem 2003; 278(48):47762-75.). Incubation of HT-29 and SW480 cells with 85 μM phospho-sulindac I for 24 h leads to a 3- and 4.4-fold increase of SSAT activity (P<0.05 versus control), respectively. On the other hand, incubation with sulindac led to a 1.5 and 2.5-fold increase of SSAT activity (P<0.05 versus control) in HT-29 and SW480 cells, respectively.
# [4] = system: spermidine/spermine N^1-acetyltransferase (SSAT); assay: SSAT enzymatic activity in SW480 cells; format: cell-based, human
# Protocol: as §2, §3
# Salmonella typhimurium = assay: Ames mutagenicity assay (reverse mutations); format: cell-based; settings: two strains, presence and absence of S9 activation
# Protocol: We assessed the safety of phospho-sulindac I by examining its genotoxicity by the Ames test and its gastrointestinal and other toxicity by performing a toxicological study in mice.
# The mutagenic potential of phospho-sulindac I was evaluated by measuring its ability to induce reverse mutations at selected loci of two strains of Salmonella typhimurium in the presence and absence of S9 activation.
# [5] = format: in vivo; settings: 5 days oral gavage
# Protocol: Phospho-sulindac I lacked gastrointestinal toxicity in mice; gastrointestinal toxicity is the major side effect of sulindac as well as of the entire class of NSAIDs. We evaluated in mice the potential toxicity of phospho-sulindac I. Three groups, each consisting of 8 female C57BL/6J+/+mice 6 wks of age, were treated for 5 days by oral gavage with equimolar amounts of phospho-sulindac I (317 mg/kg/d) or conventional sulindac (200 mg/kg/day) or vehicle. Mice were weighed at time 0 and on days 3 and 5. Mice surviving to the end of the study were euthanized and necropsied.
# The stomachs of sulindac-treated animals were larger than those of the other two groups and in some the liver appeared hyperemic.
# [6] = 24 h at its 24-h IC50, vs untreated controls
smiles,measurement,setting,value
CCOP(=O)(OCC)OCCCCOC(=O)CC1=C(C)/C(=C/c2ccc([S+](C)[O-])cc2)c2ccc(F)cc21 (stereo not shown) [Phospho-sulindac I],pIC50,MDA-MB231,4.77
same,Proliferation (% control),[1],52 % control
same,effect on G1 to S cell cycle phase transition,[2]; 24 h at its 24-h IC50,blocked the transition form the G1 to the S cell cycle phase
same,induced apoptosis (early and late subtypes combined),[2]; [6],201%
same,induced necrosis,[2]; [6],1350%
same,inhibited cell proliferation,[2]; [6],72%
same,necrosis in treated cells,"[2]; 24 h at its 24-h IC50, controls 0.2%",2.9%
same,apoptosis (early and late combined) in treated cells,"[2]; 24 h at its 24-h IC50, controls 6.6%",20%
same,cell proliferation in treated cells,"[2]; 24 h at its 24-h IC50, controls 43%",12%
same,reduction in cell number,SW480,45%
same,increase of SSAT activity,[3],3 fold
same,induction of SSAT compared to vehicle-treated controls,"[4]; SW480, 85 μM, 12 h of incubation",4 fold
same,maximum increase of SSAT,"[4]; SW480, 85 μM, 18 h of incubation",5.5 fold
same,increase of SSAT activity,"[4]; SW480, 24 h, phospho-sulindac I 85 μM, P<0.05 versus control",4.4 fold
same,genotoxicity (mutagenic potential),Salmonella typhimurium,negative for genotoxicity
same,"inspection of the heart, lungs, spleen, kidneys and liver",[5]; 317 mg/kg/d,no abnormalities
same,gastrointestinal or other toxicity (necropsy),"[5]; phospho-sulindac I 317 mg/kg/d, sulindac 200 mg/kg/day",no evidence of gastrointestinal or other toxicity
same,mortality,"[5]; phospho-sulindac I 317 mg/kg/d, sulindac 200 mg/kg/day, 8 mice/group",0%
same,body weight at end of study,"[5]; phospho-sulindac I 317 mg/kg/d, sulindac 200 mg/kg/day, start 16.3±1.2, mean±SD",15.7 ± 1.2 g
